The source of these data is US5086042A, “Peptides with sulfate ester groups” (Fisons Corporation, priority 1989, dated 1992).

The structures appear in SMILES notation. Non-standard residues stand in square brackets, D forms with d. Residues, ends and D or L forms follow the SMILES beside them. sY = N[C@@H](Cc1ccc(OS(=O)(=O)O)cc1)C(=O)O

The assay has as its system Male Sprague-Dawley rats. The assay is classed as in vivo. To be noted: rat, intraperitoneal; for % FEEDING INHIBITION 0.5 hr / % FEEDING INHIBITION 3 hr: 30 μg/kg, vs saline controls; for % FEEDING INHIBITION 0.5 hr / % FEEDING INHIBITION 0.5 hr (values marked *): 0.5 hr feeding period; for % FEEDING INHIBITION 3 hr / % FEEDING INHIBITION 3 hr (values marked *): 3 hr feeding period; for % FEEDING INHIBITION 3 hr: IA means inactive; for % FEEDING INHIBITION 3 hr (values marked *) / % FEEDING INHIBITION 0.5 hr (values marked *): 300 μg/kg, <10% inhibition at 30 μg/kg. The procedure: The peptides of this invention have the ability to inhibit feeding activity in mammals. As a result they have utility in the prevention and treatment of obesity.
Male Sprague-Dawley rats (weighing 300-350 g) are individually caged and maintained on a 12 hr. light, dark cycle and trained for at least 14 days to feed during a three hr period of the dark cycle but not the 21 hours preceding that three hr period. The day of the study, rats are dosed intraperitoneally with saline (controls) or test compound (dissolved in saline; usually at a concentration of 0.3 to 300 micrograms of test compound per kg of rat weight). Food is introduced 10 minutes after administration of saline or test compound. […] The % feeding inhibition for the 1/2 hr and 3 hr feeding periods obtained by administering a dose of 30 μg/kg of test compound is given in Table 2 for CCK-8 and various compounds of the invention. For example, the % feeding inhibition obtained with CCK-8 (first line of Table 2) was 70% for the 1/2 hr feeding period and 25% for the 3-hour period.

On to `CSCC[C@H](NC(=O)[C@H](Cc1ccc(OS(=O)(=O)O)cc1)NC(=O)[C@@H](N)CC(=O)O)C(=O)NCC(=O)N[C@@H](Cc1c[nH]c2ccccc12)C(=O)N[C@@H](CCSC)C(=O)N[C@@H](CC(=O)O)C(=O)N[C@@H](Cc1ccccc1)C(N)=O` [CCK-8, Asp-Tyr(SO3 H)-Met-Gly-Trp-Met-Asp-Phe-NH2, reference compound], for which the “% FEEDING INHIBITION 0.5 hr” value was found to be 70% and the “% FEEDING INHIBITION 3 hr” value is 25%. Regarding `CSCC[C@H](NC(=O)[C@H](Cc1ccc(OS(=O)(=O)O)cc1)NC=O)C(=O)NCC(=O)N[C@@H](Cc1c[nH]c2ccccc12)C(=O)N[C@@H](CCSC)C(=O)N[C@@H](CC(=O)O)C(=O)N[C@@H](Cc1ccccc1)C(N)=O` [For-Tyr(SO3 H)-Met-Gly-Trp-Met-Asp-Phe-NH2] (HELM PEPTIDE1{[O=C[*:2]].[O=C([C@H](Cc1ccc(OS(=O)(=O)O)cc1)N[*:1])[*:2]].M.G.W.M.D.F.[am]}$$$$V2.0), the “% FEEDING INHIBITION 0.5 hr” value is given as 100% and the “% FEEDING INHIBITION 3 hr” value is recorded as 66%. On to `CSCC[C@H](NC(=O)[C@H](Cc1ccc(OS(=O)(=O)O)cc1)NC(=O)[C@@H](N)CC(=O)O)C(=O)NCC(=O)N[C@@H](Cc1c[nH]c2ccccc12)C(=O)N[C@@H](CCSC)C(=O)N[C@@H](CC(=O)O)C(=O)N[C@@H](Cc1ccc(Cl)cc1)C(N)=O` [H-As-Tyr(SO3 H)-Met-Gly-Trp-Met-Asp-Phe(4-Cl)-NH2], for which the “% FEEDING INHIBITION 0.5 hr” value worked out at 54% and the “% FEEDING INHIBITION 3 hr (values marked *)” value was 28%. On to `CSCC[C@H](NC(=O)[C@H](Cc1c[nH]c2ccccc12)NC(=O)CNC(=O)[C@@H](CCSC)NC(=O)[C@H](Cc1ccc(OS(=O)(=O)O)cc1)NC(=O)[C@@H](N)CC(=O)O)C(=O)N[C@@H](CC(=O)O)C(=O)N[C@@H](Cc1ccccc1)C(N)=O` [H-Asp-Tyr(SO3 H)-DMet-Gly-Trp-Met-Asp-Phe-NH3], for which the “% FEEDING INHIBITION 0.5 hr” value stood at 17%. With `CC[C@H](C)[C@H](NC(=O)[C@H](Cc1ccc(OS(=O)(=O)O)cc1)NC(=O)[C@@H](N)CC(=O)O)C(=O)NCC(=O)N[C@@H](Cc1c[nH]c2ccccc12)C(=O)N[C@H](C(=O)N[C@@H](CC(=O)O)C(=O)N[C@@H](Cc1ccccc1)C(N)=O)[C@@H](C)CC` [H-Asp-Tyr(SO3 H)-Ile-Gly-Trp-Ile-Asp-Phe-NH2] (HELM PEPTIDE1{D.[O=C([C@H](Cc1ccc(OS(=O)(=O)O)cc1)N[*:1])[*:2]].I.G.W.I.D.F.[am]}$$$$V2.0), the “% FEEDING INHIBITION 0.5 hr” value is recorded as 85% and the “% FEEDING INHIBITION 3 hr” value worked out at 20%. As for `CC(C)C[C@H](NC(=O)[C@H](Cc1ccc(OS(=O)(=O)O)cc1)NC(=O)[C@@H](N)CC(=O)O)C(=O)NCC(=O)N[C@@H](Cc1c[nH]c2ccccc12)C(=O)N[C@@H](CC(C)C)C(=O)N[C@@H](CC(=O)O)C(=O)N[C@@H](Cc1ccccc1)C(N)=O` [H-Asp-Tyr(SO3 H)-Leu-Gly-Trp-Leu-Asp-Phe-NH2], the “% FEEDING INHIBITION 0.5 hr” value was 89% and the “% FEEDING INHIBITION 3 hr” value came to 24%. In the case of `NCCCC[C@H](NC(=O)[C@H](Cc1ccc(OS(=O)(=O)O)cc1)NC(=O)[C@@H](N)CC(=O)O)C(=O)NCC(=O)N[C@@H](Cc1c[nH]c2ccccc12)C(=O)N[C@@H](CCCCN)C(=O)N[C@@H](CC(=O)O)C(=O)N[C@@H](Cc1ccccc1)C(N)=O` [H-Asp-Tyr(SO3 H)-Lys-Gly-Trp-Lys-Asp-Phe-NH2] (HELM PEPTIDE1{D.[O=C([C@H](Cc1ccc(OS(=O)(=O)O)cc1)N[*:1])[*:2]].K.G.W.K.D.F.[am]}$$$$V2.0), the “% FEEDING INHIBITION 0.5 hr (values marked *)” value came to 45%. For the compound `CSCC[C@H](NC(=O)[C@H](Cc1c[nH]c2ccccc12)NC(=O)[C@@H](C)NC(=O)[C@H](CCSC)NC(=O)[C@H](Cc1ccc(OS(=O)(=O)O)cc1)NC(=O)[C@@H](N)CC(=O)O)C(=O)N[C@@H](CC(=O)O)C(=O)N[C@@H](Cc1ccccc1)C(N)=O` [H-Asp-Tyr(SO3 H)-Met-DAla-Trp-Met-Asp-Phe-NH2] (HELM PEPTIDE1{D.[O=C([C@H](Cc1ccc(OS(=O)(=O)O)cc1)N[*:1])[*:2]].M.[dA].W.M.D.F.[am]}$$$$V2.0), the “% FEEDING INHIBITION 0.5 hr” value turned out to be 16% and the “% FEEDING INHIBITION 3 hr (values marked *)” value is 18%. As to `CSCC[C@H](NC(=O)[C@H](Cc1ccc(OS(=O)(=O)O)cc1)NC(=O)[C@@H](N)CC(=O)O)C(=O)NCC(=O)N[C@H](Cc1c[nH]c2ccccc12)C(=O)N[C@@H](CCSC)C(=O)N[C@@H](CC(=O)O)C(=O)N[C@@H](Cc1ccccc1)C(N)=O` [H-Asp-Tyr(SO3 H)-Met-Gly-DTrp-Met-Asp-Phe-NH2], the “% FEEDING INHIBITION 0.5 hr (values marked *)” value amounted to 42%. The same measure, in the same setting: to `CSCC[C@H](NC(=O)[C@H](Cc1ccc(OS(=O)(=O)O)cc1)NC(=O)[C@@H](N)CC(=O)O)C(=O)NCC(=O)N[C@@H](Cc1c[nH]c2ccccc12)C(=O)N[C@H](CCSC)C(=O)N[C@@H](CC(=O)O)C(=O)N[C@@H](Cc1ccccc1)C(N)=O` [H-Asp-Tyr(SO3 H)-Met-Gly-Trp-DMet-Asp-Phe-NH2] belongs 30%; to `CSCC[C@H](NC(=O)[C@H](Cc1ccc(OS(=O)(=O)O)cc1)NC(=O)[C@@H](N)CC(=O)O)C(=O)NCC(=O)N[C@@H](Cc1c[nH]c2ccccc12)C(=O)N[C@@H](CCSC)C(=O)N[C@@H](CC(N)=O)C(=O)N[C@@H](Cc1ccccc1)C(N)=O` [H-Asp-Tyr(SO3 H)-Met-Gly-Trp-Met-Asn-Phe-NH2] (HELM PEPTIDE1{D.[O=C([C@H](Cc1ccc(OS(=O)(=O)O)cc1)N[*:1])[*:2]].M.G.W.M.N.F.[am]}$$$$V2.0), 43%.

For the compound `CSCC[C@H](NC(=O)[C@H](Cc1ccc(OS(=O)(=O)O)cc1)NC(=O)[C@@H](N)CC(=O)O)C(=O)NCC(=O)N[C@@H](Cc1c[nH]c2ccccc12)C(=O)N[C@@H](CCSC)C(=O)N[C@@H](CC(=O)O)C(=O)N[C@@H](Cc1ccc(C)cc1)C(N)=O` [H-Asp-Tyr(SO3 H)-Met-Gly-Trp-Met-Asp-Phe(4-Me)-NH2], the “% FEEDING INHIBITION 0.5 hr” value worked out at 57% and the “% FEEDING INHIBITION 3 hr” value is recorded as 18%.

For `CSCC[C@H](NC(=O)[C@H](Cc1ccc(OS(=O)(=O)O)cc1)NC(=O)[C@@H](N)CC(=O)O)C(=O)NCC(=O)N[C@@H](Cc1c[nH]c2ccccc12)C(=O)N[C@@H](CCSC)C(=O)N[C@@H](CC(=O)O)C(=O)N[C@@H](Cc1ccc(N)cc1)C(N)=O` [H-Asp-Tyr(SO3 H)-Met-Gly-Trp-Met-Asp-Phe(4-NH2)-NH2], the “% FEEDING INHIBITION 0.5 hr” value turned out to be 27%. Consider `CSCC[C@H](NC(=O)[C@H](Cc1ccc(OS(=O)(=O)O)cc1)NC(=O)[C@@H](N)CC(=O)O)C(=O)NCC(=O)N[C@@H](Cc1c[nH]c2ccccc12)C(=O)N[C@@H](CCSC)C(=O)N[C@@H](CC(=O)O)C(=O)N[C@@H](Cc1ccc([N+](=O)[O-])cc1)C(N)=O` [H-Asp-Tyr(SO3 H)-Met-Gly-Trp-Met-Asp-Phe(4-NO2)-NH2], for which the “% FEEDING INHIBITION 0.5 hr” value stood at 43% and the “% FEEDING INHIBITION 3 hr” value is listed as 17%. Regarding `CCNC(=O)[C@H](Cc1ccccc1)NC(=O)[C@H](CC(=O)O)NC(=O)[C@H](CCSC)NC(=O)[C@H](Cc1c[nH]c2ccccc12)NC(=O)CNC(=O)[C@H](CCSC)NC(=O)[C@H](Cc1ccc(OS(=O)(=O)O)cc1)NC(=O)[C@@H](N)CC(=O)O` [H-Asp-Tyr(SO3 H)-Met-Gly-Trp-Met-Asp-Phe-NHEt], the “% FEEDING INHIBITION 0.5 hr” value is 16%.

As to `COc1ccc(C[C@H](NC(=O)[C@H](CC(=O)O)NC(=O)[C@H](CCSC)NC(=O)[C@H](Cc2c[nH]c3ccccc23)NC(=O)CNC(=O)[C@H](CCSC)NC(=O)[C@H](Cc2ccc(OS(=O)(=O)O)cc2)NC(=O)[C@@H](N)CC(=O)O)C(N)=O)cc1` [H-Asp-Tyr(SO3 H)-Met-Gly-Trp-Met-Asp-Tyr(Me)-NH2] (H-D[sY]MGWMDY(Me)-NH2), the “% FEEDING INHIBITION 0.5 hr (values marked *)” value turned out to be 72%. For `CSCC[C@H](NC(=O)[C@H](Cc1ccc(OS(=O)(=O)O)cc1)NC(=O)[C@@H](N)CC(=O)O)C(=O)NCC(=O)N[C@@H](Cc1c[nH]c2ccccc12)C(=O)N[C@@H](CCSC)C(=O)N[C@H](CC(=O)O)C(=O)N[C@@H](Cc1ccccc1)C(N)=O` [H-Asp-Tyr(SO3 H)-Met-Gly-Trp-Met-DAsp-Phe-NH2], the “% FEEDING INHIBITION 0.5 hr” value stood at 32% and the “% FEEDING INHIBITION 3 hr (values marked *)” value was found to be 15%. On the same counts, the results for `CSCC[C@H](NC(=O)[C@H](Cc1ccc(OS(=O)(=O)O)cc1)NC(=O)[C@@H](N)CC(=O)O)C(=O)NCC(=O)N[C@@H](Cc1c[nH]c2ccccc12)C(=O)N[C@@H](CCSC)C(=O)N[C@@H](CC(=O)O)C(=O)N[C@H](Cc1ccccc1)C(N)=O` [H-Asp-Tyr(SO3 H)-Met-Gly-Trp-Met] are 46% and 14%.

Regarding `CSCC[C@H](NC(=O)[C@H](Cc1c[nH]c2ccccc12)NC(=O)CN(C)C(=O)[C@H](CCSC)NC(=O)[C@H](Cc1ccc(OS(=O)(=O)O)cc1)NC(=O)[C@@H](N)CC(=O)O)C(=O)N[C@@H](CC(=O)O)C(=O)N[C@@H](Cc1ccccc1)C(N)=O` [H-Asp-Tyr(SO3 H)-Met-Sar-Trp-Met-Asp-Phe-NH2], the “% FEEDING INHIBITION 0.5 hr (values marked *)” value is on record as 55%. Take `CSCC[C@H](NC(=O)[C@H](Cc1ccc(OS(=O)(=O)O)cc1)NC(=O)[C@@H](N)CC(=O)O)C(=O)NCC(=O)N[C@@H](Cc1ccc2ccccc2c1)C(=O)N[C@@H](CCSC)C(=O)N[C@@H](CC(=O)O)C(=O)N[C@@H](Cc1ccccc1)C(N)=O` [H-Asp-Tyr(SO3)-Met-Gly-Nal-Met-Asp-Phe-NH2] (HELM PEPTIDE1{D.[O=C([C@H](Cc1ccc(OS(=O)(=O)O)cc1)N[*:1])[*:2]].M.G.[O=C([C@H](Cc1ccc2ccccc2c1)N[*:1])[*:2]].M.D.F.[am]}$$$$V2.0): the “% FEEDING INHIBITION 0.5 hr (values marked *)” value was 52%.
